# Experimental data published in patent US11400063B2, “Early administration of low-dose colchicine after myocardial infarction” (INSTITUT DE CARDIOLOGIE DE MONTREAL, priority 2019, dated 2022).
# System: patients recruited within 30 days after a myocardial infarction
# Assay: COLCOT time-to-treatment initiation (TTI) analysis
# Assay type: in vivo, human
# Details: for All Coronary Revascularizations, HR (95% CI) / All-cause death, HR (95% CI) / MI, HR (95% CI) / Primary composite endpoint, HR (95% CI) / Resuscitated cardiac arrest, HR (95% CI) / Secondary Composite Endpoint, HR (95% CI) / Stroke, HR (95% CI) / Urgent hospitalization for angina requiring coronary revascularization, HR (95% CI): colchicine vs. placebo
# Procedure: (§1) The results of the COLCOT trial have been further analyzed to determine if time to treatment initiation (TTI) had any effect on the outcome of the treatment. Three different cutoffs for TTI were used in order to determine the association between early initiation of therapy and clinical outcomes. These cutoffs were determined based on the usual journey of patients with MI. The first 30-day post-MI timeline was divided into three independent periods of time, and analyzed as such: from day 0 to 3, referring to in-hospital management; from day 4 to 7, referring to early post-discharge period and from day 8 to 30, referring to late post-discharge period.
# COLCOT was an international multicenter, randomized, double-blinded trial that randomly assigned patients to receive either low-dose colchicine (0.5 mg once daily) or placebo. The study protocol and main results have been published (see, Tardif et al., N Engl J Med 2019). […] Main exclusion criteria were severe heart failure, reduced left ventricular ejection fraction (<35%), recent stroke (<3 months), type 2 MI, recent (<3 years) or planned coronary artery bypass graft (CABG), history of cancer (<3 years), and inflammatory bowel disease or chronic diarrhea. All patients enrolled in the trial benefited from percutaneous coronary intervention whenever indicated and guidelines-directed management of CV disease prior to randomization (see. Tardif et al., N Engl J Med 2019).
# The primary efficacy endpoint was a composite of CV death, resuscitated cardiac arrest, MI, stroke, or urgent hospitalization for angina requiring coronary revascularization. The secondary endpoints consisted of the components of the primary efficacy endpoint, all-cause death, and a composite of CV death, resuscitated cardiac arrest, MI, or stroke. Exploratory endpoints included all coronary revascularizations, including both elective and urgent coronary revascularizations.
# as §1, with “Three” for “The results of the COLCOT trial have been further analyzed to determine if time to treatment initiation (TTI) had any effect on the outcome of the treatment. Three”
# Both the TTI of less than 4 days and the TTI of less than 5 days was were calculated using a basic model (Table 4 and Table 6) as well as an adjusted model (Table 5 and Table 7) which is described below in the statistical analysis section. In all cases, the interaction p-value was not significant (p>0.05), meaning that the conclusion over Placebo vs. Colchicine group can be obtained directly from the respective p-values for HR. In other words, relationships within the placebo and colchicine groups with TTI are both linear/parallel and the interpretation is straightforward.
# For the present TTI analysis, the data were centrally analyzed by an independent academic biostatistics center at the Montreal Health Innovations Coordinating Center. The analysis was conducted amongst patients who received at least one dose of the study medication (referred to as the safety population in the main protocol, FIG. 1). TTI was defined as the length of time in days between the index MI and the initiation of the study medication, and three specific cutoffs were analyzed ([…], days 4 to […]). Early initiation of therapy was defined as TTI≤3 days. Baseline characteristics were summarized using counts and percentages for categorical variables and mean±standard deviation (SD) for continuous variables. For each baseline characteristic, comparisons were made using ANOVA for continuous variables and Chi-Square test for categorical variables according to TTI strata. […]
# [1] = TTI 0-3 days, listed as colchicine
structure (smiles),measurement,setting,value
"COc1cc2c(c(OC)c1OC)-c1ccc(OC)c(=O)cc1[C@@H](NC(C)=O)CC2 [Colchicine, colchicine]","All Coronary Revascularizations, % of patients","TTI 0-3 days, N = 1193",5.5%
same,"All Coronary Revascularizations, no. of patients","TTI 0-3 days, N = 1193",33 no.
same,"All-cause death, % of patients","TTI 0-3 days, N = 1193",1.0%
same,"All-cause death, no. of patients","TTI 0-3 days, N = 1193",6 no.
same,"MI, % of patients","TTI 0-3 days, N = 1193",2.8%
same,"MI, no. of patients","TTI 0-3 days, N = 1193",17 no.
same,"Primary composite endpoint, % of patients","TTI 0-3 days, N = 1193",4.3%
same,"Primary composite endpoint, no. of patients","TTI 0-3 days, N = 1193",26 no.
same,"Resuscitated cardiac arrest, % of patients","TTI 0-3 days, N = 1193",0.2%
same,"Resuscitated cardiac arrest, no. of patients","TTI 0-3 days, N = 1193",1 no.
same,"Secondary Composite Endpoint, % of patients","TTI 0-3 days, N = 1193",3.3%
same,"Stroke, % of patients","TTI 0-3 days, N = 1193",0.2%
same,"Stroke, no. of patients","TTI 0-3 days, N = 1193",1 no.
same,"Urgent hospitalization for angina requiring coronary revascularization, % of patients","TTI 0-3 days, N = 1193",1%
same,"Urgent hospitalization for angina requiring coronary revascularization, no. of patients","TTI 0-3 days, N = 1193",6 no.
same,"Secondary Composite Endpoint, no. of patients","TTI 0-3 days, N = 1193, CV death, resuscitated cardiac arrest, MI or stroke",20 no.
same,"All Coronary Revascularizations, HR (95% CI)",TTI 0-3 days,0.63 (0.40-0.97); p = 0.037
same,"All-cause death, HR (95% CI)",TTI 0-3 days,1.03 (0.33-3.19); p = 0.962
same,"MI, HR (95% CI)",TTI 0-3 days,0.58 (0.32-1.05); p = 0.071
same,"Primary composite endpoint, HR (95% CI)",TTI 0-3 days,0.52 (0.32-0.84); p = 0.007
same,"Resuscitated cardiac arrest, HR (95% CI)",TTI 0-3 days,0.33 (0.03-3.20); p = 0.340
same,"Secondary Composite Endpoint, HR (95% CI)",TTI 0-3 days,0.55 (0.32-0.95); p = 0.031
same,"Stroke, HR (95% CI)",TTI 0-3 days,0.21 (0.02-1.81); p = 0.156
same,"Urgent hospitalization for angina requiring coronary revascularization, HR (95% CI)",TTI 0-3 days,0.35 (0.14-0.88); p = 0.026
same,"All Coronary Revascularizations, HR (95% CI)",[1],0.63
same,"All-cause death, HR (95% CI)",[1],1.03
same,"MI, HR (95% CI)",[1],0.58
same,"Primary composite endpoint, HR (95% CI)",[1],0.52
same,"Resuscitated cardiac arrest, HR (95% CI)",[1],0.33
same,"Secondary Composite Endpoint, HR (95% CI)",[1],0.55
same,"Stroke, HR (95% CI)",[1],0.21
same,"Urgent hospitalization for angina requiring coronary revascularization, HR (95% CI)",[1],0.35
same,"All Coronary Revascularizations, % of patients","TTI 4-7 days, N = 720",6.9%
same,"All Coronary Revascularizations, no. of patients","TTI 4-7 days, N = 720",25 no.
same,"All-cause death, % of patients","TTI 4-7 days, N = 720",2.2%
same,"All-cause death, no. of patients","TTI 4-7 days, N = 720",8 no.
same,"MI, % of patients","TTI 4-7 days, N = 720",4.4%
same,"MI, no. of patients","TTI 4-7 days, N = 720",16 no.
same,"Primary composite endpoint, % of patients","TTI 4-7 days, N = 720",6.0%
same,"Primary composite endpoint, no. of patients","TTI 4-7 days, N = 720",22 no.
same,"Resuscitated cardiac arrest, % of patients","TTI 4-7 days, N = 720",0.5%
same,"Resuscitated cardiac arrest, no. of patients","TTI 4-7 days, N = 720",2 no.
same,"Secondary Composite Endpoint, % of patients","TTI 4-7 days, N = 720",4.9%
same,"Secondary Composite Endpoint, no. of patients","TTI 4-7 days, N = 720",18 no.
same,"Stroke, % of patients","TTI 4-7 days, N = 720",0.3%
same,"Stroke, no. of patients","TTI 4-7 days, N = 720",1 no.
same,"Urgent hospitalization for angina requiring coronary revascularization, % of patients","TTI 4-7 days, N = 720",1.1%
same,"Urgent hospitalization for angina requiring coronary revascularization, no. of patients","TTI 4-7 days, N = 720",4 no.
same,"All Coronary Revascularizations, HR (95% CI)",TTI 4-7 days,1.41 (0.76-2.61); p = 0.275
same,"All-cause death, HR (95% CI)",TTI 4-7 days,1.03 (0.37-2.84); p = 0.957
same,"MI, HR (95% CI)",TTI 4-7 days,1.67 (0.74-3.78); p = 0.218
same,"Primary composite endpoint, HR (95% CI)",TTI 4-7 days,0.96 (0.53-1.75); p = 0.896
same,"Resuscitated cardiac arrest, HR (95% CI)",TTI 4-7 days,1.90 (0.17-20.95); p = 0.600
